Values quoted from earlier work in US20100197018A1, “USE OF SUBSTRATES AS PHARMACOLOGICAL CHAPERONES” (AMICUS THERAPEUTICS, INC., priority 2007, published 2010).
Where two headings read alike, the source gives them in different places. Marks after values point to notes of the source that are not given here.

Tests used:
[1] = molecular target: T1, N-acetyl-glucosamine-6-sulfate sulfatase (6S) Form A (Homo sapiens, UniProt P15586); conditions: for Relative catalytic efficiency*: kcat./Km calculated relative to a value for GlcNAc6S = 1; for Relative catalytic efficiency*, value in parentheses: relative to GlcNAc6S = 1; for pH optimum: Table 6; for Ratio of catalytic efficiencies: form A/form B: form A over form B
T1 sequence (P15586 37-552): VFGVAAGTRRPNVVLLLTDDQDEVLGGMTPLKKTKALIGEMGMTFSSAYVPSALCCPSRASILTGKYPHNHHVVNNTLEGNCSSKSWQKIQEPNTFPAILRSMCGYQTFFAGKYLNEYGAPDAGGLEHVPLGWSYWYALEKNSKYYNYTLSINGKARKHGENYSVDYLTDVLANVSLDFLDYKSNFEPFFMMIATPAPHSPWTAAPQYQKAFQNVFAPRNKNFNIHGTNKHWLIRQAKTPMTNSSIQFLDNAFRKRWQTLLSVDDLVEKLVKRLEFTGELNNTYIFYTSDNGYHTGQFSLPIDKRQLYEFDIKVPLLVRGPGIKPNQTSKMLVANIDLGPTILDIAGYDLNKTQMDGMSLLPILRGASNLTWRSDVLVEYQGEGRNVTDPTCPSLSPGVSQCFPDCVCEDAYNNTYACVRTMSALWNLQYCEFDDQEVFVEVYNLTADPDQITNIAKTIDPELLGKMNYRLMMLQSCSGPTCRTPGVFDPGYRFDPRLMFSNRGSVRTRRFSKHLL

heparan-N-sulfatase = molecular target: T2, heparan-N-sulfatase (Homo sapiens, UniProt P51688); conditions: for Relative catalytic efficiency*: GlcNS = 1.00; for pH optimum of the enzyme for the substrate: purified enzyme
T2 sequence (P51688 21-502): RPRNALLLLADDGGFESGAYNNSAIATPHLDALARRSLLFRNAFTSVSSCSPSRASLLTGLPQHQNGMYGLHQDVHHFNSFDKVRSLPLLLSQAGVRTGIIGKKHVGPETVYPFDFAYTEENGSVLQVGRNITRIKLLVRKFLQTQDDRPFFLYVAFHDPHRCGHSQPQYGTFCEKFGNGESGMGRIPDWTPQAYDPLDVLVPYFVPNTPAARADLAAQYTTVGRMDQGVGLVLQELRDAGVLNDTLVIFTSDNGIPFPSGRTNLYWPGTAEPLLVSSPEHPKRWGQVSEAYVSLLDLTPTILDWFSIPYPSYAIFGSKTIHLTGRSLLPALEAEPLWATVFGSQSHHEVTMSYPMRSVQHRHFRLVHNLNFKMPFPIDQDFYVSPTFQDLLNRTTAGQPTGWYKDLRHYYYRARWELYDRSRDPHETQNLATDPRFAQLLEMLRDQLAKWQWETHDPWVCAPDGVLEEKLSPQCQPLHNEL

[2] = molecular target: T3, N-acetyl-glucosamine-6-sulfate sulfatase (6S) Form B (Homo sapiens, UniProt P15586)
T3 sequence (P15586 37-552): T1 sequence (P15586 37-552)

[3] = in vivo
BACEI = BACEI (Homo sapiens, UniProt P56817); conditions: low concentrations
[4] = Form A, parentheses not explained
[5] = Form A, second line of the substrate, parentheses not explained
[6] = Form A, second line of the substrate, parentheses not explained, read-out: Km, value in parentheses
[7] = second line of the substrate, parentheses not explained
[8] = 37°, pH 5.6 (second line of the substrate)
[9] = 37°, pH: GlcNS-Ido 6.7, GlcNS-Ido2S 5.5, GlcNS-IdOA 5.6, GlcNS-IdoA-GlcNS-IdOA 5.6, GlcNS-IdoA2S-anM6S 3.6, GlcNS6S-Ido 4.2, GlcNS6S-Ido2S 3.8, GlcNS6S-IdOA 4.2
[10] = second line of the substrate, parentheses not explained, read-out: Km, value in parentheses
[11] = rows whose other values are marked †
[12] = values marked † (60° C. per footnote), pH: GlcNS 5.6, GalNS 5.6, GlcNS-IdOA 5.4

Sequence of BACEI (P56817 46-457 limits assumed): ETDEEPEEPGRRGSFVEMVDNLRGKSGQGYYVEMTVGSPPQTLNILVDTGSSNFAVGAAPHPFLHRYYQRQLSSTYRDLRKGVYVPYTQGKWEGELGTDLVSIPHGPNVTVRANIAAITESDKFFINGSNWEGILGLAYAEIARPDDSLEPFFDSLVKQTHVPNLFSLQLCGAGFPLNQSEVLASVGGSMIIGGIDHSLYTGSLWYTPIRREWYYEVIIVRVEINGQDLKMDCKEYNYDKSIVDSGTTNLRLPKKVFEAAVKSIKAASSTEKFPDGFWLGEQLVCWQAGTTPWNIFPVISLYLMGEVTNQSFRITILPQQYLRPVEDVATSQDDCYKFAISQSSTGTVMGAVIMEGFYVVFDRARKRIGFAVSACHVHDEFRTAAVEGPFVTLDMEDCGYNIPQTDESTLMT

Compound | kcat. (turnover number) ([1]; Form A) | Relative catalytic efficiency* ([1]; Form A) | Km ([1]; Form A, read-out: Km) | pH optimum [1] | Ratio of catalytic efficiencies: form A/form B [1] | Relative catalytic efficiency* (heparan-N-sulfatase; 37°, pH (optimum)) | Km (heparan-N-sulfatase; [9]) | kcat. (turnover number) (heparan-N-sulfatase; [9]) | Km ([2]; read-out: Km) | other results
O=C(O)[C@H](O)[C@@H](O[C@H]1O[C@H](COS(=O)(=O)O)[C@@H](O)[C@H](O)[C@H]1NS(=O)(=O)O)[C@H](O)[C@@H](O)CO [GlcNS6S-IdOA, O-(α-2-sulphaminoglucosamine 6 sulphate)-(1-3)-L-idonic acid] | 2.46 mol/min per mol of enzyme | 13 | 8 µM | 5.0 | 2.2 | 33 | 2.5 µM | 0.105 mol/min per mol of enzyme | 8.3 µM | Relative catalytic efficiency*, value in parentheses [1, 4]: (9.8); kcat. (turnover number), value in parentheses [1, 5]: (1.725) mol/min per mol of enzyme; Km [1, 6]: 7.6 µM; Ratio of catalytic efficiencies: form A/form B, value in parentheses [1, 7]: (2.5); pH optimum, value in parentheses [1, 7]: (5.0); Km (heparan-N-sulfatase; [8]): 2.4 µM; kcat. (turnover number) (heparan-N-sulfatase; [8]): 0.088 mol/min per mol of enzyme; Relative catalytic efficiency* (heparan-N-sulfatase; [8]): 50; Km [2, 10]: 6.6 µM
O=C(O)[C@H](O)[C@@H](O[C@H]1O[C@H](CO)[C@@H](O[C@@H]2O[C@@H](C(=O)O)[C@@H](O[C@H]3O[C@H](CO)[C@@H](O)[C@H](O)[C@H]3NS(=O)(=O)O)[C@H](O)[C@H]2O)[C@H](O)[C@H]1NS(=O)(=O)O)[C@H](O)[C@@H](O)CO [GlcNS-IdoA-GlcNS-IdOA, O-(α-2-sulphaminoglucosamine)-(1-4)-L-O-(α-iduronic acid)-(1-4)-O-D-(α-2-sulphaminoglucosamine)-(1-3)-L-idonic acid] | – | – | – | – | – | 6927 | 10.3 µM | 52 mol/min per mol of enzyme | – | pH optimum of the enzyme for the substrate (heparan-N-sulfatase): 5.5
O=C[C@H](O)[C@@H](O)[C@H](O[C@H]1O[C@H](CO)[C@@H](O)[C@H](O)[C@H]1NS(=O)(=O)O)[C@@H](O)C(=O)O [GlcNS-IdOA, O-(α-2-sulphaminoglucosamine)-(1-4)-O-L-iduronic acid] | – | – | – | – | – | 359 | 35 µM | 9.19 mol/min per mol of enzyme | – | pH optimum of the enzyme for the substrate (heparan-N-sulfatase): 5.5; Relative catalytic efficiency* (heparan-N-sulfatase; [11]): 1477; Km (heparan-N-sulfatase; [12]): 40.8 µM; kcat. (turnover number) (heparan-N-sulfatase; [12]): 44† mol/min per mol of enzyme
CC(=O)N[C@H]1C(O)O[C@H](COS(=O)(=O)O)[C@@H](O)[C@@H]1O (some centres unmarked) [GlcNAc6S, N-acetyl-glucosamine 6-sulfate] | 0.165 mol/min per mol of enzyme | 1.0 | 7.1 µM | 5.7 | 2.1 | – | – | – | 10 µM | pH optimum of 6S activity [1]: 5.7; decrease in the Km ([1]; addition of a 2-acetamido group to Glc6S): 6-9 fold; effect on Kcat ([1]; relative to the parent substrate (Glc6S for GlcNAc6S; GlcNAc6S for GlcNAc6S-Ido)): decrease in Kcat
heparan sulphate | – | – | – | – | – | – | – | – | – | oral activity [3]: orally active
O=C[C@H](O)[C@@H](O)[C@H](O)[C@H](O)COS(=O)(=O)O [Glc6S, glucose 6-sulfate] | 0.585 mol/min per mol of enzyme | 0.4 | 62.5 µM | 5.7 | 1.3 | – | – | – | 62.5 µM | Kcat [1]: 0.585 mol/min/mol enzyme; pH optimum of 6S activity [1]: 5.7; Km ([1]; read-out: Km): 62.5 µM
heparin | – | – | – | – | – | – | – | – | – | effect on partially active BACEI (BACEI): stimulate partially active BACEI
O=C(O)[C@@H]1O[C@@H](O[C@H]2[C@H](O)[C@@H](CO)O[C@@H]2COS(=O)(=O)O)[C@H](OS(=O)(=O)O)[C@@H](O)[C@@H]1O[C@H]1O[C@H](CO)[C@@H](O)[C@H](O)[C@H]1NS(=O)(=O)O [GlcNS-IdoA2S-anM6S, O-α-2-sulphaminoglucosamine)-(1-4) O-L-(α-iduronic-acid 2-sulphate)-(1-4)-O-D-(2,5)-anhydro-mannitol 6-sulphate] | – | – | – | – | – | 67193 | 3.8 µM | 186 mol/min per mol of enzyme | – | Km (heparan-N-sulfatase; [8]): 5.3 µM; kcat. (turnover number) (heparan-N-sulfatase; [8]): 117 mol/min per mol of enzyme; Relative catalytic efficiency* (heparan-N-sulfatase; [8]): 30237
CC(=O)N[C@H]1[C@@H](O[C@@H]([C@H](O)[C@@H](O)CO)[C@@H](O)C(=O)O)O[C@H](COS(=O)(=O)O)[C@@H](O)[C@@H]1O [GlcNAc6S-IdOA, O-(α-N-acetylglucosamine 6-sulphate)-(1-3)-L-idonic acid] | 7.90 mol/min per mol of enzyme | 31 | 11.1 µM | 5.0 | 2.4 | – | – | – | 14.3 µM | pH optimum of 6S activity [1]: 5.0; Relative catalytic efficiency*, value in parentheses [1, 4]: (29); kcat. (turnover number), value in parentheses [1, 5]: (6.79) mol/min per mol of enzyme; Km [1, 6]: 10 µM; Ratio of catalytic efficiencies: form A/form B, value in parentheses [1, 7]: (2.8); pH optimum, value in parentheses [1, 7]: (5.0); Km [2, 10]: 13.2 µM
2-sulphoamino-glucosamine [GlcNS] | – | – | – | – | – | – | – | – | – | kcat. (turnover number), value in parentheses (heparan-N-sulfatase; in parentheses under the † value, parentheses not explained, pH 5.6): (0.0005) mol/min per mol of enzyme; pH optimum of the enzyme for the substrate (heparan-N-sulfatase): 5.6; Relative catalytic efficiency* (heparan-N-sulfatase; [11]): 1.00; Km (heparan-N-sulfatase; [12]): 0.7 µM; kcat. (turnover number) (heparan-N-sulfatase; [12]): 0.0021† mol/min per mol of enzyme
O=C[C@H](O)[C@@H](O)[C@H](O[C@H]1O[C@H](COS(=O)(=O)O)[C@@H](O)[C@H](O)[C@H]1NS(=O)(=O)O)[C@@H](O)CO [GlcNS6S-Ido, O-(α-2-sulphaminoglucosamine 6-sulphate)-(1-4)-L-idose] | 0.518 mol/min per mol of enzyme | 2.1 | 10.8 µM | 4.8 | 1.9 | 28 | 3 µM | 0.061 mol/min per mol of enzyme | 9.2 µM | –
O=C[C@H](OS(=O)(=O)O)[C@@H](O)[C@H](O[C@H]1O[C@H](COS(=O)(=O)O)[C@@H](O)[C@H](O)[C@H]1NS(=O)(=O)O)[C@@H](O)CO [GlcNS6S-Ido2S, O-(α-2-sulphaminoglucosamine 6-sulphate)-(1-4)-L-idose 2-sulphate] | 0.201 mol/min per mol of enzyme | 3.8 | 2.3 µM | 4.2 | – | 388 | 4.1 µM | 3.333 mol/min per mol of enzyme | – | –
